Test results taken from ChEMBL document CHEMBL1153503, “Design and synthesis of novel nitrogen-containing polyhydroxylated aromatics as HIV-1 integrase inhibitors from caffeic acid phenethyl ester” (Bioorg Med Chem Lett, 2009).

Assays:
[1] = biological target: T1, Human immunodeficiency virus type 1 integrase (Human immunodeficiency virus 1, UniProt Q7ZJM1); experiment: Inhibition of HIV1 integrase assessed as inhibition of strand transfer activity by 32P-labelled assay
[2] = biological target: T1, Human immunodeficiency virus type 1 integrase
Description: Inhibition of HIV1 integrase assessed as inhibition of 3'-end processing by 32P-labelled assay

[3] = biological target: Human immunodeficiency virus type 1 integrase (Human immunodeficiency virus 1) (UniProt Q7ZJM1); experiment: Selectivity index, ratio of IC50 for HIV1 integrase 3'-end processing to IC50 for HIV1 integrase strand transfer activity
Sequence of Human immunodeficiency virus type 1 integrase (Human immunodeficiency virus 1) (Q7ZJM1 as listed by the source): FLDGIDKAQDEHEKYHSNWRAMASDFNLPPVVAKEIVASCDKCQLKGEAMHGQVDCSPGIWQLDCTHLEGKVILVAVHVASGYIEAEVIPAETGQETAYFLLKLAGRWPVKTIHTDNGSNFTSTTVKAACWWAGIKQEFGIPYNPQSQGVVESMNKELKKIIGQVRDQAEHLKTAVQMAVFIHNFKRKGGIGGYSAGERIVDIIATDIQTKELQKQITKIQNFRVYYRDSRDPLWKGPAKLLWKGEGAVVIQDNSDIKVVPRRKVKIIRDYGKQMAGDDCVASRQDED

T1 sequence (Q7ZJM1 whole entry): as the sequence (Q7ZJM1 as listed by the source) above

SMILES | IC50 [1] [µM] | IC50 [2] [µM] | Ratio IC50 [3]
O=C(Nc1ccc(S(=O)(=O)Nc2ccc(F)c(F)c2F)cc1)c1cc(O)c(O)c(O)c1 | 3 | 7 | 
O=C(Nc1ccc(S(=O)(=O)Nc2ccc(F)c(F)c2)cc1)c1cc(O)c(O)c(O)c1 | 1.5 | 4 | 
O=C(Nc1ccc(S(=O)(=O)Nc2cccc(Br)c2)cc1)c1cc(O)c(O)c(O)c1 | 0.7 | 2 | 
O=C(Nc1ccc(S(=O)(=O)Nc2ccc(Cl)c(Cl)c2)cc1)c1cc(O)c(O)c(O)c1 | 1.7 | 5 | 
O=C(/C=C/c1ccc(O)c(O)c1)Nc1ccc(S(=O)(=O)Nc2ccccc2)cc1 | 12 | 16 | 
Cc1ccccc1NS(=O)(=O)c1ccc(NC(=O)c2cc(O)c(O)c(O)c2)cc1 | 2 | 7 | 
O=C(Nc1ccc(S(=O)(=O)Nc2ccccc2)cc1)c1cc(O)c(O)c(O)c1 | 1.5 | 7 | 
Cc1cc(C)cc(NS(=O)(=O)c2ccc(NC(=O)c3cc(O)c(O)c(O)c3)cc2)c1 | 2.5 | 8 | 
CC(=O)Oc1cc(C(=O)Nc2ccc(S(=O)(=O)Nc3ccccc3C)cc2)cc(OC(C)=O)c1OC(C)=O | 1.6 | > 10 | 
Cc1ccc(NS(=O)(=O)c2ccc(NC(=O)c3cc(O)c(O)c(O)c3)cc2)cc1C | 8 | 8 | 
CCCCc1ccc(NS(=O)(=O)c2ccc(NC(=O)c3cc(O)c(O)c(O)c3)cc2)cc1 | 2.5 | 3 | 
O=C(Nc1ccc(S(=O)(=O)Nc2ccccc2)cc1)c1ccc(O)c(O)c1 | 50 | 100 | 
NS(=O)(=O)c1ccc(NC(=O)c2cc(O)c(O)c(O)c2)cc1 | 2 | 22 | 11
O=C(Nc1ccc(S(=O)(=O)NCc2ccc(F)cc2)cc1)c1cc(O)c(O)c(O)c1 | 2 | 7 | 
CC(=O)Oc1cc(C(=O)Nc2ccc(S(=O)(=O)Nc3ccccc3)cc2)cc(OC(C)=O)c1OC(C)=O | 1.6 | 8 | 

Next, values leading:

IC50 [1] [µM] | IC50 [2] [µM] | Ratio IC50 [3] | SMILES
2 | 6 |  | O=C(Nc1ccc(S(=O)(=O)Nc2ccc(Cl)cc2)cc1)c1cc(O)c(O)c(O)c1
0.7 | 3 |  | O=C(Nc1ccc(S(=O)(=O)Nc2ccc(Br)cc2)cc1)c1cc(O)c(O)c(O)c1
3 | 4 |  | O=C(Nc1ccc(S(=O)(=O)Nc2ccc([N+](=O)[O-])cc2)cc1)c1cc(O)c(O)c(O)c1
4.5 | 5 |  | COc1ccc(NS(=O)(=O)c2ccc(NC(=O)c3cc(O)c(O)c(O)c3)cc2)cc1
0.9 | 7 |  | O=C(Nc1ccc(S(=O)(=O)Nc2ccc(F)cc2)cc1)c1cc(O)c(O)c(O)c1
2 | 5 |  | O=C(Nc1ccc(S(=O)(=O)NCc2ccc(Cl)cc2)cc1)c1cc(O)c(O)c(O)c1
1.3 | 6 |  | CCOc1ccc(NS(=O)(=O)c2ccc(NC(=O)c3cc(O)c(O)c(O)c3)cc2)cc1
